Columns and labels:
Experiment in all cases: greenhouse post-emergence herbicidal test
Assay type in all cases: in vivo
Conditions in all cases: application rate 2 kg/ha, post-emergence method; scale 0 to 100 (100 = complete destruction)
Amaranthus retroflexus = tested on: Amaranthus retroflexus
From the text: (§1) The seeds of the test plants were sown separately for each species. For the post-emergence treatment, the test plants were first grown to a height of 3 to 8 cm, depending on the plant habit, and only then treated with the active ingredients which had been suspended or emulsified in water. For this purpose, the test plants were either sown directly and grown in the same containers, or they were first grown separately as seedlings and transplanted into the test containers a few days prior to treatment. Depending on the species, the plants were kept at 10-25° C. or 20-35° C., respectively. The test period extended over 2 to 4 weeks. During this time, the plants were tended, and their response to the individual treatments was evaluated. Evaluation was carried out using a scale from 0 to 100. 100 means no emergence of the plants, or complete destruction of at least the aerial moieties, and 0 means no damage, or normal course of growth. A moderate herbicidal activity is given at values of at least 60, a good herbicidal activity is given at values of at least 70, and a very good herbicidal activity is given at values of at least 85. The plants used in the greenhouse experiments were of the following species: [table]

Abutilon theophrasti = tested on: Abutilon theophrasti
From the text: as §1

Echinocloa crus-galli = tested on: Echinocloa crus-galli
From the text: as §1

Avena fatua = tested on: Avena fatua
From the text: as §1

Setaria viridis = tested on: Setaria viridis
From the text: as §1

Alopecurus myosuroides = tested on: Alopecurus myosuroides
From the text: as §1

Row | Structure (SMILES) | herbicidal activity against Amaranthus retroflexus (Amaranthus retroflexus) [%] | herbicidal activity against Abutilon theophrasti (Abutilon theophrasti) [%] | herbicidal activity against Echinocloa crus-galli (Echinocloa crus-galli) [%] | herbicidal activity against Avena fatua (Avena fatua) [%] | herbicidal activity against Setaria viridis (Setaria viridis) [%] | herbicidal activity against Alopecurus myosuroides (Alopecurus myosuroides) [%]
1 | O=C(O)COc1ccc2c(c1)B(O)OC2 [I-1] | 100 | 90 | 100 | 90 | 100 | –
2 | CCOC(=O)C(C)(C)Oc1ccc2c(c1)B(O)OC2 [I-2] | 100 | – | – | – | – | –
3 | COC(=O)COc1ccc2c(c1)B(O)OC2 [I-3] | 100 | 100 | 98 | 90 | 100 | –
4 | CC(C)(Oc1ccc2c(c1)B(O)OC2)C(=O)O [I-4] | – | 85 | 85 | – | – | –
5 | COC(=O)COc1cc2c(cc1F)COB2O [I-5] | 100 | 100 | 98 | 98 | 98 | 98
6 | O=C(O)COc1cc2c(cc1F)COB2O [I-6] | 100 | 100 | 98 | 98 | 100 | 90
7 | COC(=O)COc1cc2c(cc1Cl)COB2O [I-7] | 100 | 100 | 100 | 98 | 100 | 95
8 | O=C(O)COc1cc2c(cc1Cl)COB2O [I-8] | 100 | 100 | 100 | 98 | 95 | 98
9 | COC(=O)C(Oc1cc2c(cc1F)COB2O)C(=O)OC [I-10] | 90 | – | – | – | 95 | –
10 | O=C(O)COc1c(Cl)cc2c(c1Cl)B(O)OC2 [I-15] | 100 | – | 85 | – | 90 | –
11 | O=C(O)CSc1cc2c(cc1F)COB2O [I-22] | 100 | 100 | – | – | 100 | –
12 | O=C(O)COc1c(F)cc2c(c1F)B(O)OC2 [I-24] | 100 | 100 | – | – | 95 | –
13 | O=C(O)CCCOc1cc2c(cc1F)COB2O [I-25] | 95 | – | – | – | 95 | –
14 | CCOC(=O)C(F)Oc1ccc2c(c1)B(O)OC2 (stereo not shown) [I-26] | 100 | 90 | – | – | 85 | –
15 | COC(=O)CSc1cc2c(cc1F)COB2O [I-28] | 100 | 100 | – | – | 100 | –
16 | COC(=O)COc1c(F)cc2c(c1F)B(O)OC2 [I-29] | 100 | – | 95 | – | 100 | –
17 | CC(Oc1c(F)cc2c(c1F)B(O)OC2)C(=O)O (stereo not shown) [I-30] | 100 | 95 | – | – | – | 85
18 | O=C(O)COc1c(F)c(F)c2c(c1F)B(O)OC2 [I-33] | 100 | 98 | – | – | 98 | –
19 | COC(=O)C(C)Oc1c(F)cc2c(c1F)B(O)OC2 (stereo not shown) [I-35] | 100 | 100 | – | – | 98 | –
20 | O=C(O)CS(=O)(=O)c1cc2c(cc1F)COB2O [I-37] | 100 | – | – | – | – | –
21 | COC(=O)COc1c(F)c(F)c2c(c1F)B(O)OC2 [I-39] | 100 | – | – | – | 100 | –
22 | COC(=O)CS(=O)(=O)c1cc2c(cc1F)COB2O [I-42] | 100 | 100 | – | – | – | –

— patent US11064701B2, “Benzoxaborole compounds” (BASF SE, priority 2016, dated 2021)
